The results in this text go back to publication PMC12331786, “Component characterization of Smilax glabra Roxb., and its inhibitory activity against Helicobacter pylori through targeted suppression of its secreted urease” (Frontiers in Cellular and Infection Microbiology, 2025).

Structures are written as SMILES. In brackets after ≈: the same amount, converted by molar mass. Like-named read-outs stand apart in the source and are kept apart here.

For assay [1], the target named is T1, H. pylori urease (HPU) (Helicobacter pylori, UniProt P69996).
T1 construct: The resulting HPU preparation represents a crude enzyme extract; endogenous in cells; host or cells: H. pylori strain ATCC 43504 (crude enzyme extract, method of Matsubara et al. 2003)
The assay can be described thus: biochemical. The class given is biochemical, H. pylori strain ATCC 43504. Here is the method:
H. pylori was inoculated in Campylobacter agar and grown on Columbia agar with appropriate bovine serum albumin at 37°C, 98% humidity, and low aerobic conditions (5% O2, 10% CO2, and 85% N2) for 72 hours. Three days later, H. pylori was collected by scraping and then suspended in phosphate buffered saline (PBS). Besides, the H. pylori concentration was calibrated to 1×10^8 CFU/mL by turbidimetric method. Standard HPU was extracted from H. pylori strain ATCC 43504 following the approach detailed by [Matsubara et al. (2003)]. The resulting HPU preparation represents a crude enzyme extract, which has been widely adopted for initial inhibitor screening studies ([Li et al., 2018]; [Tan et al., 2017]; [Yu et al., 2015]). All inhibition assays included appropriate controls (enzyme blanks and solvent controls) to ensure specific detection of urease activity.
(§1) The protein concentration of HPU was tested utilizing BCA protein detection kit. Standard urease test mixture consists of 150 mM urea in HEPES buffer (20 mM). HPU solution of varying concentrations was mixed with 150 mM urea as the substrate in a HEPES buffer (20 mM), and then reacted at 37 °C for 20 min. Urease vitality was assessed based on ammonia levels generated during the reaction. Ultimately, residual urease activity was measured by modified Berthelot (phenol hypochlorite) at 595 nm. This experiment was performed three times in parallel.
(§2) Test drug solution with equal volume and different concentration was mixed with urease and incubated in a 96-well plate at 37°C for 20 min. AHA was used as the positive control, while urease with urea (no depressor) served as the negative control. Moreover, urea solution (150 mM) was admixed and coincubated at ambient temperature for 20 min. Residual urease activity was measured via using the modified Berthelot method. The percentage of residual activity (RA%) was calculated as (A^sample - A^blank)/(A^negative control - A^blank)×100%, where A^blank represents the background absorbance without urease. Calculating the half-maximal inhibitory concentration (IC50) of the depressor to assess the impact of the test drug towards enzyme activity. Each experiment was conducted in triplicate for validation.

The target of assay [2] is T2, jack bean urease (JBU) (Canavalia ensiformis, UniProt P07374).
T2 construct: purchased Sigma Aldrich
As to the kind of experiment: biochemical. The class given is biochemical.
From the text: Campylobacter agar medium was purchased from Thermo Fisher Scientific. Acetylhydroxamic acid (AHA), jack bean urease (JBU, type III with specific activity 40.3 U/mg solid) and urea were obtained from Sigma Aldrich. Boric acid (BA) and sodium fluoride (NaF) were purchased from Maclin (Shanghai, China). Dithiothreitol (DTT) and L-cysteine (L-cys) were obtained from Solaibao (Beijing, China). Glutathione (GSH) was obtained from Meilun (Dalian, China). HEPES (Amresco >99%) was from BioFroxx. All chemicals and reagents were of analytic purity.
as §1, §2

For assay [3], the system named is H. pylori strains (ATCC 43504, NCTC 26695, ICDC 111001). The assay can be described thus: Minimal inhibitory concentration assay (agar dilution method). The class given is cell-based. The note with it: Helicobacter pylori, H. pylori strain ICDC 111001.
For assay [4], the target named is T1, H. pylori urease (HPU). As to the kind of experiment: biochemical. The class given is biochemical, H. pylori strain ATCC 43504. Here is the method: Residual urease activity was determined by pre-incubating test drug, urease mixture with a series of urea concentrations. Michaelis constant (KM ) and maximum velocity (vmax ) values are obtained from the Lineweaver-Burk plots of 1/v and 1/urea by plotting the reciprocal reaction velocity and substrate concentration. Variation characteristics of urease kinetic parameters KM and vmax were analyzed by adding different concentrations of test products to determine the type of inhibiting effect on HPU. Each sample was performed in triplicate.
The source holds these as a separate data set.

Assay [5] has as its target T2, jack bean urease (JBU). The assay can be described thus: biochemical. The class given is biochemical. This is another data set of the same source.

T1 sequence (P14916 whole entry): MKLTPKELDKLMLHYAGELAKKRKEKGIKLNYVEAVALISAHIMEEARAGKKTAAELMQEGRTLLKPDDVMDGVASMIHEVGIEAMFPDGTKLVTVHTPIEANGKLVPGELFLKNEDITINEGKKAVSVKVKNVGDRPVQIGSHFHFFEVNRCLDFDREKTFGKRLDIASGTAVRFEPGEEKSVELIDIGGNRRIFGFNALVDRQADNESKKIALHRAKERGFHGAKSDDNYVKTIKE
T1 sequence (P69996 whole entry): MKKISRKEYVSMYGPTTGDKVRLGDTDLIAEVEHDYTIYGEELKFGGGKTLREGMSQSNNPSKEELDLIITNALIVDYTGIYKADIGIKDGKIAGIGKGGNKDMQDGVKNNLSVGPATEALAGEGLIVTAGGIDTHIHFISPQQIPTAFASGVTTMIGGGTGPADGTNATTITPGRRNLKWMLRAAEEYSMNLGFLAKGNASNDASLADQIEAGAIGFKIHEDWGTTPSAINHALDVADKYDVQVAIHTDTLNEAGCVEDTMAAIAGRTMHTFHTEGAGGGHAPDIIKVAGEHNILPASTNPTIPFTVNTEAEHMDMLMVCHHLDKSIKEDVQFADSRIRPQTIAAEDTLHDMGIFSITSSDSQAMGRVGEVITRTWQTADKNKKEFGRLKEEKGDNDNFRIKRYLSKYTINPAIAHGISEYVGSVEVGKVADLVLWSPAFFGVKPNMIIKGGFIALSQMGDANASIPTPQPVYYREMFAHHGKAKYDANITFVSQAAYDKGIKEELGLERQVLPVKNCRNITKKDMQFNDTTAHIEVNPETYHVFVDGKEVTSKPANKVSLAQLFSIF
T2 sequence (P07374 whole entry, looked up): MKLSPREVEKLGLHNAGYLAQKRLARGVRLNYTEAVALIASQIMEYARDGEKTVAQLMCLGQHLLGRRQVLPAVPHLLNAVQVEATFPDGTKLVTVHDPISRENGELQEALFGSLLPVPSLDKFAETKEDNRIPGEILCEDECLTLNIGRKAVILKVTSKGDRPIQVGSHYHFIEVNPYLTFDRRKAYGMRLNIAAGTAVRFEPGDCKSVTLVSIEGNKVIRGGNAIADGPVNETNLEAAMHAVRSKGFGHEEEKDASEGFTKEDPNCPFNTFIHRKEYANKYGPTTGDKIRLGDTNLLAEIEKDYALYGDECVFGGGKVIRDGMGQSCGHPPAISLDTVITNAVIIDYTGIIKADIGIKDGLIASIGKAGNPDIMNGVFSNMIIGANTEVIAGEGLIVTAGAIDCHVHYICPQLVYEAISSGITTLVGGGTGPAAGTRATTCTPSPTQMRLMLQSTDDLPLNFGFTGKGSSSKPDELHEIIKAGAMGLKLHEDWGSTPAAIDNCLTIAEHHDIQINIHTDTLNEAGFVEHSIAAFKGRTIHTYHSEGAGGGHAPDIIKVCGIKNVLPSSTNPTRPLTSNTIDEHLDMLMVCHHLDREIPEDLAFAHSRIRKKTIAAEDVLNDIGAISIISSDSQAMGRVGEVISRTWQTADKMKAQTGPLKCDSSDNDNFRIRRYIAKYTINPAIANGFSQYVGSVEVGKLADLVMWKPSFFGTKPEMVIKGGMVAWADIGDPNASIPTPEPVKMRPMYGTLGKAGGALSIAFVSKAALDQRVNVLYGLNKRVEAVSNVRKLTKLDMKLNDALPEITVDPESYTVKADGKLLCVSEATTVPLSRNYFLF

For orientation: IC50 means the concentration that gives 50% inhibition. A lower IC50 goes with inhibition by little substance. As for `CC(=O)NO` [AHA, Acetylhydroxamic acid, reference compound], the IC50 at H. pylori urease (HPU) [1] (HPU, positive control) turned out to be 4.93 ± 0.11 µg/mL; at jack bean urease (JBU) [2] (JBU, positive control), 1.56 ± 0.10 µg/mL.
The term MIC denotes the lowest concentration that inhibits growth of the organism. In the case of `Cc1ncc([N+](=O)[O-])n1CCO` [Metronidazole], the minimal inhibitory concentration (MIC) in assay [3] and in assay [3] (pH 7.2) was 2 µg/mL (≈ 11.7 µM) throughout.
What is called Ki is a dissociation constant, usually derived from enzyme kinetics or from competition with a known ligand. A higher Ki goes with lower affinity. On to `C[C@@H]1O[C@@H](O[C@H]2C(=O)c3c(O)cc(O)cc3O[C@@H]2c2ccc(O)c(O)c2)[C@H](O)[C@H](O)[C@H]1O` [astilbin], for which the 50% inhibitory concentration (IC50) at H. pylori urease (HPU) [1] was 1470 ± 10 µM; on jack bean urease (JBU) [2] it was 2220 ± 20 µM. The “Strength of urease inhibition relative to engeletin” value on H. pylori urease (HPU) [1] (urease, HPU/JBU not given) is recorded as “more than three times as strongly”. In addition, the results for the Ki at H. pylori urease (HPU) [4] and at jack bean urease (JBU) [5] were 870 ± 10 µM and 200 ± 10 µM, respectively. Besides, the Kis stood at 0.87 ± 0.01 mM at H. pylori urease (HPU) [4] (HPU) and 1.17 ± 0.10 mM on jack bean urease (JBU) [5] (JBU). For the same molecule, the Inhibition type result at H. pylori urease (HPU) [4] (HPU, Lineweaver-Burk analysis) is “non-competitive”; at jack bean urease (JBU) [5] (JBU, Lineweaver-Burk analysis) it was “mixed”.
`C[C@@H]1O[C@@H](O[C@H]2C(=O)c3c(O)cc(O)cc3O[C@@H]2c2ccc(O)cc2)[C@H](O)[C@H](O)[C@H]1O` [engeletin]: the IC50 came out at 5890 ± 10 µM against H. pylori urease (HPU) [1] and 6670 ± 10 µM against jack bean urease (JBU) [2].
